PMC5218480 (PLoS ONE, 2017)

System: MV-4-11 cells
Test: Gene expression microarray analysis (Affymetrix PrimeView) and GSEA
Format: cell-based, human
Parameters: RFU PODN (11730768_x_at) / Fold change /veh PODN (11730768_x_at) / RFU LINC00158 (11744669_a_at) / Fold change /veh LINC00158 (11744669_a_at) / RFU DUSP10 (11751237_a_at) / Fold change /veh DUSP10 (11751237_a_at) / RFU ID3 (11757404_x_at) / Fold change /veh ID3 (11757404_x_at) / RFU PLEKHG5 (11737974_s_at) / Fold change /veh PLEKHG5 (11737974_s_at) / RFU LRRC4B (11730491_at) / Fold change /veh LRRC4B (11730491_at) / RFU GIMAP4 (11747438_a_at) / Fold change /veh GIMAP4 (11747438_a_at) / RFU KRT8 (11758183_x_at) / Fold change /veh KRT8 (11758183_x_at) / RFU CNN1 (11734310_a_at) / Fold change /veh CNN1 (11734310_a_at) / RFU VPS37D (11726825_at) / Fold change /veh VPS37D (11726825_at) / RFU C10orf10 (11716522_x_at) / Fold change /veh C10orf10 (11716522_x_at) / RFU KIR2DL2 /// KIR2DL4 /// KIR2DL5A /// KIR2DL5B /// KIR2DS1 /// KIR2DS2 /// KIR2DS3 /// KIR2DS4 /// KIR3DL3 /// KIR3DL3 /// KIR3DS1 (11738374_at) / Fold change /veh KIR2DL2 /// KIR2DL4 /// KIR2DL5A /// KIR2DL5B /// KIR2DS1 /// KIR2DS2 /// KIR2DS3 /// KIR2DS4 /// KIR3DL3 /// KIR3DL3 /// KIR3DS1 (11738374_at) / RFU C1QL1 (11718748_at) / Fold change /veh C1QL1 (11718748_at) / RFU TMPRSS4 (11747572_a_at) / Fold change /veh TMPRSS4 (11747572_a_at) / RFU HAMP (11756126_x_at) / Fold change /veh HAMP (11756126_x_at) / RFU RNFT2 (11725882_a_at) / Fold change /veh RNFT2 (11725882_a_at) / RFU NR4A2 (11747474_a_at) / Fold change /veh NR4A2 (11747474_a_at) / RFU ABCC12 (11746883_a_at) / Fold change /veh ABCC12 (11746883_a_at) / RFU TMEM136 (11760407_x_at) / Fold change /veh TMEM136 (11760407_x_at) / RFU CLDN22 /// WWC2 (11732394_at) / Fold change /veh CLDN22 /// WWC2 (11732394_at) / RFU HLA-DPB1 (11760878_x_at) / Fold change /veh HLA-DPB1 (11760878_x_at) / RFU SPINT1 (11716480_a_at) / Fold change /veh SPINT1 (11716480_a_at) / RFU GAP43 (11754022_s_at) / Fold change /veh GAP43 (11754022_s_at) / RFU A4GNT (11735810_at) / Fold change /veh A4GNT (11735810_at) / RFU PRB3 (11715151_x_at) / Fold change /veh PRB3 (11715151_x_at) / RFU TUBB4B (11761932_at) / Fold change /veh TUBB4B (11761932_at) / RFU CAPN14 (11732068_a_at) / Fold change /veh CAPN14 (11732068_a_at) / RFU TMCC2 (11721928_a_at) / Fold change /veh TMCC2 (11721928_a_at) / RFU IRGQ (11745062_a_at) / Fold change /veh IRGQ (11745062_a_at) / RFU FAM174B (11720279_a_at) / Fold change /veh FAM174B (11720279_a_at) / RFU TMPRSS4 (11748680_a_at) / Fold change /veh TMPRSS4 (11748680_a_at) / RFU FAM212B (11763350_a_at) / Fold change /veh FAM212B (11763350_a_at) / RFU PLEKHG5 (11743358_a_at) / Fold change /veh PLEKHG5 (11743358_a_at) / RFU ZSCAN30 (11745921_a_at) / Fold change /veh ZSCAN30 (11745921_a_at) / RFU CMKLR1 (11741424_a_at) / Fold change /veh CMKLR1 (11741424_a_at) / RFU LOC101060620 /// MAPK8IP1 (11723275_at) / Fold change /veh LOC101060620 /// MAPK8IP1 (11723275_at) / RFU SPTSSB (11747773_x_at) / Fold change /veh SPTSSB (11747773_x_at) / RFU PRSS12 (11739890_at) / Fold change /veh PRSS12 (11739890_at) / RFU BIN1 (11741810_x_at) / Fold change /veh BIN1 (11741810_x_at) / RFU WNT11 (11732464_a_at) / Fold change /veh WNT11 (11732464_a_at) / RFU C10orf10 (11716521_a_at) / Fold change /veh C10orf10 (11716521_a_at) / RFU C5orf56 (11738089_at) / Fold change /veh C5orf56 (11738089_at) / RFU CYB561 (11721691_x_at) / Fold change /veh CYB561 (11721691_x_at) / RFU ANKRD19P (11752326_a_at) / Fold change /veh ANKRD19P (11752326_a_at) / RFU OR2T12 /// OR2T33 /// OR2T8 (11738714_s_at) / Fold change /veh OR2T12 /// OR2T33 /// OR2T8 (11738714_s_at) / RFU VCAN (11748164_a_at) / Fold change /veh VCAN (11748164_a_at) / RFU JSRP1 (11732532_at) / Fold change /veh JSRP1 (11732532_at) / RFU KRTAP10-11 (11738290_x_at) / Fold change /veh KRTAP10-11 (11738290_x_at) / RFU MYO3A (11730013_a_at) / Fold change /veh MYO3A (11730013_a_at) / RFU EBF3 (11725865_a_at) / Fold change /veh EBF3 (11725865_a_at) / RFU CAMK2N1 (11719241_x_at) / Fold change /veh CAMK2N1 (11719241_x_at) / RFU C5orf56 (11738088_a_at) / Fold change /veh C5orf56 (11738088_a_at) / RFU OLFML3 (11715873_a_at) / Fold change /veh OLFML3 (11715873_a_at) / RFU LOC100653217 /// NTM (11731650_a_at) / Fold change /veh LOC100653217 /// NTM (11731650_a_at) / RFU MAPK11 (11762145_a_at) / Fold change /veh MAPK11 (11762145_a_at) / RFU FIZ1 (11724087_x_at) / Fold change /veh FIZ1 (11724087_x_at) / RFU OASL (11726364_x_at) / Fold change /veh OASL (11726364_x_at) / RFU SOX15 (11748057_x_at) / Fold change /veh SOX15 (11748057_x_at) / RFU CD79A (11719716_a_at) / Fold change /veh CD79A (11719716_a_at) / RFU HIST1H1D (11736915_at) / Fold change /veh HIST1H1D (11736915_at) / RFU CASKIN2 (11723855_a_at) / Fold change /veh CASKIN2 (11723855_a_at) / RFU LOC730098 (11760151_x_at) / Fold change /veh LOC730098 (11760151_x_at) / RFU OR4N2 (11742367_at) / Fold change /veh OR4N2 (11742367_at) / RFU PRRT2 (11749266_a_at) / Fold change /veh PRRT2 (11749266_a_at) / RFU SNX32 (11753110_a_at) / Fold change /veh SNX32 (11753110_a_at) / RFU CDHR5 (11726645_a_at) / Fold change /veh CDHR5 (11726645_a_at) / RFU RCAN1 (11760418_a_at) / Fold change /veh RCAN1 (11760418_a_at) / RFU FAM167A (11723789_a_at) / Fold change /veh FAM167A (11723789_a_at) / RFU FAM26E (11764081_at) / Fold change /veh FAM26E (11764081_at) / RFU ISYNA1 (11749810_s_at) / Fold change /veh ISYNA1 (11749810_s_at) / RFU ACY1 (11761880_at) / Fold change /veh ACY1 (11761880_at) / RFU 11764098_at / Fold change /veh 11764098_at / RFU SAMD14 (11745864_x_at) / Fold change /veh SAMD14 (11745864_x_at) / RFU NPB (11741838_a_at) / Fold change /veh NPB (11741838_a_at) / RFU TMPRSS6 (11731388_a_at) / Fold change /veh TMPRSS6 (11731388_a_at) / RFU KRTAP10-2 (11738614_at) / Fold change /veh KRTAP10-2 (11738614_at) / RFU ARHGAP8 /// PRR5-ARHGAP8 (11727945_x_at) / Fold change /veh ARHGAP8 /// PRR5-ARHGAP8 (11727945_x_at) / RFU KRTAP5-7 /// NADSYN1 (11734609_at) / Fold change /veh KRTAP5-7 /// NADSYN1 (11734609_at) / RFU RASL12 (11751679_a_at) / Fold change /veh RASL12 (11751679_a_at) / RFU CDKN2B (11736163_a_at) / Fold change /veh CDKN2B (11736163_a_at) / RFU PRF1 (11729649_at) / Fold change /veh PRF1 (11729649_at) / RFU, ZNF638 /// ZNF638-IT1 / Fold change vs veh, ZNF638 /// ZNF638-IT1 / RFU, PANK3 / Fold change vs veh, PANK3 / RFU, SH3YL1 / Fold change vs veh, SH3YL1 / RFU, ZEB2 / Fold change vs veh, ZEB2 / RFU, NRIP1 / Fold change vs veh, NRIP1 / RFU, PTTG1IP / Fold change vs veh, PTTG1IP / RFU, CAPN2 / Fold change vs veh, CAPN2 / RFU, MED14 / Fold change vs veh, MED14 / RFU, SNORA58 / Fold change vs veh, SNORA58 / RFU, C1orf63 / Fold change vs veh, C1orf63 / RFU, LRRFIP1 / Fold change vs veh, LRRFIP1 / RFU, NDUFAF7 / Fold change vs veh, NDUFAF7 / RFU, SLC12A2 / Fold change vs veh, SLC12A2 / RFU, IBTK / Fold change vs veh, IBTK / RFU, ESF1 / Fold change vs veh, ESF1 / Fold change vs veh, TMEM50B / RFU, TAOK1 / Fold change vs veh, TAOK1 / RFU, ACBD3 / Fold change vs veh, ACBD3 / RFU, TMA16 / Fold change vs veh, TMA16 / RFU, RWDD3 / Fold change vs veh, RWDD3 / RFU, BCAT1 / Fold change vs veh, BCAT1 / RFU, EDEM3 / Fold change vs veh, EDEM3 / RFU, TMEM33 / Fold change vs veh, TMEM33 / RFU, WDR75 / Fold change vs veh, WDR75 / RFU, AHCTF1 / Fold change vs veh, AHCTF1 / RFU, TFRC / Fold change vs veh, TFRC / RFU, ZDHHC17 / Fold change vs veh, ZDHHC17 / RFU, NOM1 / Fold change vs veh, NOM1 / RFU, ARL8B / Fold change vs veh, ARL8B / RFU, ZBTB11 / Fold change vs veh, ZBTB11 / RFU, TAMM41 / Fold change vs veh, TAMM41 / RFU, KIAA1704 /// LOC100996395 / Fold change vs veh, KIAA1704 /// LOC100996395 / RFU, ING1 / Fold change vs veh, ING1 / RFU, TRMT61B / Fold change vs veh, TRMT61B / RFU, FUBP3 / Fold change vs veh, FUBP3 / RFU, TP53 / Fold change vs veh, TP53 / RFU, TNKS2 / Fold change vs veh, TNKS2 / RFU, ZFP14 / Fold change vs veh, ZFP14 / RFU, ACTR2 / Fold change vs veh, ACTR2 / RFU, PPP3R1 / Fold change vs veh, PPP3R1 / RFU, PIK3R1 / Fold change vs veh, PIK3R1 / RFU, HNRNPA1 / Fold change vs veh, HNRNPA1 / RFU, RNF170 / Fold change vs veh, RNF170 / RFU, ZNF28 / Fold change vs veh, ZNF28 / RFU, RNGTT / Fold change vs veh, RNGTT / RFU, OGT / Fold change vs veh, OGT / RFU, BRD1 / Fold change vs veh, BRD1 / RFU, MARS / Fold change vs veh, MARS / RFU, ZNF655 / Fold change vs veh, ZNF655 / RFU, FAHD1 / Fold change vs veh, FAHD1 / RFU, BDP1 / Fold change vs veh, BDP1 / RFU, LRRCC1 / Fold change vs veh, LRRCC1 / RFU, ARID1A / Fold change vs veh, ARID1A / RFU, ZNF146 / Fold change vs veh, ZNF146 / RFU, ZNF330 / Fold change vs veh, ZNF330 / RFU, GPN3 / Fold change vs veh, GPN3 / RFU, C9orf123 / Fold change vs veh, C9orf123 / RFU, N4BP2L2 / Fold change vs veh, N4BP2L2 / RFU, ARFIP1 / Fold change vs veh, ARFIP1 / RFU, FAM179B / Fold change vs veh, FAM179B / RFU, BCL10 / Fold change vs veh, BCL10 / RFU, UHRF1BP1L / Fold change vs veh, UHRF1BP1L / RFU, BET1 / Fold change vs veh, BET1 / RFU, CNOT2 / Fold change vs veh, CNOT2 / RFU, ZNF268 / Fold change vs veh, ZNF268 / Fold change vs veh, ZNF507 / RFU, DGCR2 / Fold change vs veh, DGCR2 / RFU, WDSUB1 / Fold change vs veh, WDSUB1 / Fold change vs veh, HSP90B1 /// MIR3652 / RFU, ADSS / Fold change vs veh, ADSS / RFU, GK / Fold change vs veh, GK / RFU, ZNF148 / Fold change vs veh, ZNF148 / RFU, TAF9 / Fold change vs veh, TAF9 / RFU, SLC1A5 / Fold change vs veh, SLC1A5 / RFU, SLMO2 / Fold change vs veh, SLMO2 / RFU, ABCC4 / Fold change vs veh, ABCC4 / RFU, LOC101060439 /// RAP1B / Fold change vs veh, LOC101060439 /// RAP1B / RFU, RFX7 / Fold change vs veh, RFX7 / RFU, GTPBP10 / Fold change vs veh, GTPBP10 / RFU, CNEP1R1 / Fold change vs veh, CNEP1R1 / RFU, BIVM-ERCC5 /// ERCC5 / Fold change vs veh, BIVM-ERCC5 /// ERCC5 / RFU, ILF3 / Fold change vs veh, ILF3 / RFU 11762660_at / Fold change /veh 11762660_at / RFU VCAN (11757783_s_at) / Fold change /veh VCAN (11757783_s_at) / RFU DDX43 (11728927_at) / Fold change /veh DDX43 (11728927_at) / RFU KRT8 (11758188_x_at) / Fold change /veh KRT8 (11758188_x_at) / RFU NKD1 (11759106_at) / Fold change /veh NKD1 (11759106_at) / RFU SRD5A1 (11742802_a_at) / Fold change /veh SRD5A1 (11742802_a_at) / RFU TPSAB1 /// TPSB2 (11721975_s_at) / Fold change /veh TPSAB1 /// TPSB2 (11721975_s_at) / RFU GSTM3 (11746129_a_at) / Fold change /veh GSTM3 (11746129_a_at) / RFU IL23R (11737362_x_at) / Fold change /veh IL23R (11737362_x_at) / RFU TMEM51 (11727254_a_at) / Fold change /veh TMEM51 (11727254_a_at) / RFU PIWIL2 (11732686_x_at) / Fold change /veh PIWIL2 (11732686_x_at) / RFU ORM1 (11744905_x_at) / Fold change /veh ORM1 (11744905_x_at) / RFU CCDC152 (11743942_at) / Fold change /veh CCDC152 (11743942_at) / RFU ECM1 (11717891_a_at) / Fold change /veh ECM1 (11717891_a_at) / RFU IL23R (11748794_a_at) / Fold change /veh IL23R (11748794_a_at) / RFU TNFAIP8L3 (11732012_x_at) / Fold change /veh TNFAIP8L3 (11732012_x_at) / RFU MBOAT4 (11741988_at) / Fold change /veh MBOAT4 (11741988_at) / RFU 11764193_at / Fold change /veh 11764193_at / RFU TMEM53 (11763286_at) / Fold change /veh TMEM53 (11763286_at) / RFU MAGEB2 (11727129_at) / Fold change /veh MAGEB2 (11727129_at) / RFU TMEM200A (11744735_a_at) / Fold change /veh TMEM200A (11744735_a_at) / RFU CCDC152 (11751479_a_at) / Fold change /veh CCDC152 (11751479_a_at) / RFU FAM211A (11726209_a_at) / Fold change /veh FAM211A (11726209_a_at) / RFU RGS16 (11746705_a_at) / Fold change /veh RGS16 (11746705_a_at) / RFU VCAN (11755009_s_at) / Fold change /veh VCAN (11755009_s_at) / RFU RHOB (11743442_s_at) / Fold change /veh RHOB (11743442_s_at) / RFU RGS16 (11720943_a_at) / Fold change /veh RGS16 (11720943_a_at) / RFU RGS16 (11720944_at) / Fold change /veh RGS16 (11720944_at) / RFU, VPS4B / Fold change vs veh, VPS4B / RFU, CREB1 / Fold change vs veh, CREB1 / RFU, DNAJC13 / Fold change vs veh, DNAJC13 / RFU, GNAQ / Fold change vs veh, GNAQ / RFU, CDK5R1 / Fold change vs veh, CDK5R1 / RFU, ZRANB3 / Fold change vs veh, ZRANB3 / RFU, CUL4A / Fold change vs veh, CUL4A / RFU, CCNY / Fold change vs veh, CCNY / RFU, UFL1 / Fold change vs veh, UFL1 / RFU, COG3 / Fold change vs veh, COG3 / RFU, DIAPH2 / Fold change vs veh, DIAPH2 / RFU, SKA2 / Fold change vs veh, SKA2 / RFU, AFF3 / Fold change vs veh, AFF3 / RFU, LMF1 / Fold change vs veh, LMF1 / RFU, IPO11 / Fold change vs veh, IPO11 / RFU, DFFB / Fold change vs veh, DFFB / RFU, FOXP1 / Fold change vs veh, FOXP1 / RFU, CARD8 / Fold change vs veh, CARD8 / RFU, STRN3 / Fold change vs veh, STRN3 / RFU, ADK / Fold change vs veh, ADK / RFU, RASSF2 / Fold change vs veh, RASSF2 / RFU, WIPF1 / Fold change vs veh, WIPF1 / RFU, LARP1B / Fold change vs veh, LARP1B / RFU, RASA1 / Fold change vs veh, RASA1 / RFU, RB1 / Fold change vs veh, RB1 / RFU, PPFIA1 / Fold change vs veh, PPFIA1 / RFU, MAT2A / Fold change vs veh, MAT2A / RFU, CCT5 / Fold change vs veh, CCT5 / RFU, WDR92 / Fold change vs veh, WDR92 / RFU, CUX1 / Fold change vs veh, CUX1 / RFU, TTC7A / Fold change vs veh, TTC7A / RFU, TMEM135 / Fold change vs veh, TMEM135 / RFU, DEPTOR / Fold change vs veh, DEPTOR / RFU, CPM / Fold change vs veh, CPM / RFU, DNAJB6 / Fold change vs veh, DNAJB6 / RFU, CACNA2D3 / Fold change vs veh, CACNA2D3 / RFU, DTX4 / Fold change vs veh, DTX4 / RFU, TFCP2 / Fold change vs veh, TFCP2 / RFU, GMCL1 /// GMCL1P1 / Fold change vs veh, GMCL1 /// GMCL1P1 / RFU, AEBP2 / Fold change vs veh, AEBP2 / RFU, SNHG1 /// SNORD22 /// SNORD25 /// SNORD26 /// SNORD27 /// SNORD28 /// SNORD29 /// SNORD31 / Fold change vs veh, SNHG1 /// SNORD22 /// SNORD25 /// SNORD26 /// SNORD27 /// SNORD28 /// SNORD29 /// SNORD31 / Fold change (Aza/veh), C12orf56 (ProbeSet 11735607_a_at) / Fold change (ACY-1035/veh), C12orf56 (ProbeSet 11735607_a_at) / Fold change (Aza/veh), FGFR1OP (ProbeSet 11751329_s_at) / Fold change (ACY-1035/veh), FGFR1OP (ProbeSet 11751329_s_at) / Fold change (Aza/veh), VPS36 (ProbeSet 11739960_a_at) / Fold change (ACY-1035/veh), VPS36 (ProbeSet 11739960_a_at) / RFU SYPL1 (11715823_x_at) / Fold change /veh SYPL1 (11715823_x_at) / RFU IGFBP7 (11715501_s_at) / Fold change /veh IGFBP7 (11715501_s_at) / RFU REEP3 (11722064_at) / Fold change /veh REEP3 (11722064_at) / RFU IGLL1 (11728026_x_at) / Fold change /veh IGLL1 (11728026_x_at): dose or concentration left out as unconfirmed
Conditions: MV-4-11 cells, 48 hours

SMILES: Nc1ccc(-c2cccs2)cc1NC(=O)c1ccc2c(c1)cc(C1CC1)n2CCN1CCOCC1 [ACY-1035]
- RFU TMEM200A (11744735_a_at): 5.05 RFU
